One test deals with calcineurin. The settings on record: cited from earlier work.
For another test, the system named is crushed sciatic nerve. Kind of test: Sciatic nerve crush and regeneration (electron microscopy morphometry). The test is classed as in vivo, adult, outbred ICR mice. How it is done: (A) The sciatic nerves of adult, outbred ICR mice were crushed, as previously described (Gondre et al., Accelerated nerve regeneration mediated by Schwann cells expressing a mutant form of the POU protein SCIP. J. Cell Biol., 141:493-501, 1998). Following the surgery, the animals were randomized into treatment groups of either GM-284 (10 mg/kg) or vehicle. At the end of 30 days, the animals were sacrificed, their sciatic nerves were prepared for electron microscopy, and subsequently evaluated for the extent of both axonal and myelin regeneration. All sampling was done at the same proximal-distal levels, and approximately 5 mm below the crush site. […] (B) Quantitative analysis of both axonal and myelin growth in response to GM-284 treatment was carried out by digitizing the images in (A), and determining the axonal and myelin volumes, calculated in voxels.
Mice were anesthetized (i.p.) with 0.5 cc of 2.5% Avertin/saline, before perfusion via the left ventricle. The animals were perfused for 30 min at 37° C., with a rat Ringer's solution containing heparin (2.0 ml/L; stock=10,000 units/ml) and 2% lidocaine (3.0 ml/L), followed by perfusion for 7-10 min with 2% glutaraldehyde/1% paraformaldehyde in 0.15 M sodium cacodylate, pH 7.2. Approximately 1 cm of sciatic nerve was dissected from the hind leg (from the hip to the knee), and split into 3 sections (proximal, medial, and distal). A 2-mm length was taken from each of the three sections, then immersion fixed. The primary fixation was carried out for 2-4 h total, at 4° C., with 2% glutaraldehyde/1% paraformaldehyde in 0.15 M sodium cacodylate buffer, pH 7.2. Tissues were rinsed 6 times, for 20 min each, then rinsed overnight at 4° C. in 0.15 M sodium cacodylate buffer, pH 7.2.
Secondary fixation was carried out for 4 h at 4° C. in 1% osmium-tetroxide/1.5% potassium-ferrocyanide in 0.15 M sodium cacodylate buffer, pH 7.2. Tissues were rinsed 3 times, for 10 min each, in Millipore-filtered water at 4° C., then stained en bloc in 2% uranyl acetate (aq) at 4° C. for 1 h. At this point, the tissues were dehydrated once for 8 min in a graded ethanol series starting with water, 30%, 50%, 70%, 95%, and then dehydrated twice, for 10 min each, in 100% ethanol and then in propylene oxide. After dehydration, the nerve tissue was infiltrated with propylene oxide/Durcupan (Fluka Chemika-BioChemika, Ronkonkoma, N.Y.), in a 25/75 ratio, for 60 min at room temperature. This was followed by infiltration three times, for 120 min each, in Durcupan resin at room temperature. Sciatic nerves were flat-embedded in fresh Durcupan resin, and polymerized for 24-36 h at 65° C. 1-μM-thick sections were stained with Toluidine blue. Silver sections were cut on a Diatome diamond knife, and stained with 2% uranyl acetate for 30 min at room temperature, and with Reynold's lead citrate for 7 min. Thin sections were viewed at 60 kv, and photographed on a JEOL 100 CX conventional transmission electron microscope.
Deep anesthesia was obtained with i.p. injection of Avertin. Electrophysiology recordings were obtained, as previously described (Bieri et al., Abnormal nerve conduction studies in mice expressing a mutant form of the POU transcription factor SCIP. J. Neurosci. Res., 50:821-28, 1997). Immediately afterward, the right sciatic nerve of each animal was exposed and crushed 2 times, for 30 sec each, using a #5 Dumont forceps. In brief, the skin was prepped bilaterally prior to electrophysiologic testing. […]

For a further test, the system named is Schwann cells. Kind of test: cDNA-array analysis of Schwann cell gene expression. The test is classed as cell-based, Sprague-Dawley rats. As for the experimental part: To generate primary Schwann cells, neonatal Sprague-Dawley rats were sacrificed by decapitation, and 2-cm segments (approximately) of sciatic nerve were excised and placed in ice-cold PBS. Following removal of the epineurium, the nerves were pooled and placed in Hank's balanced salt solution containing 0.1% trypsin for 30 min at 37° C. Subsequently, partially-dissociated cells were plated onto polylysine/laminin-coated tissue culture plates, and enriched Schwann cells were further purified by the activation of anti-Thy 1.1 monoclonal antibodies and complement, in order to lyse proliferating fibroblasts (Wu and Weinstein, “Isolation and Purification of Primary Schwann Cells”, in Current Protocols in Neuroscience, Crawley et al., eds. (New York, N.Y.: John Wiley & Sons, 1999). The Schwann cells were maintained in DMEM containing 10% FCS supplemented with 50 ng/ml GGF and 2 μg/ml forskolin. However, these latter compounds were removed 48 h prior to the addition of immunophilin ligands. For the Schwann cell/PC12 co-cultures, monolayers of Schwann cells were prepared and overlaid with pCX-expressing PC12 cells, and cultures were incubated in the presence of either 100 ng/ml NGF or 1 μg/ml GM-284 for 48 h.
To test the former hypothesis, the inventors starved Schwann cells of growth factor for 48 h, then treated the cells for either 4 h or 48 h with a 1-μM dose of GM-284. RNA was harvested from the treated cells and from control (vehicle-treated) Schwann cells, and then prepared for cDNA-array analysis. Experimental details of the preparation of the RNA, and the methods for conducting the hybridization, washing, and scanning, are posted at the following http website: //sequence.aecom.yu.edu/bioinf/funcgenomic.html.
Total RNA was isolated, and prepared for cDNA microarray analysis as described (Peng et al., Microarray analysis of global changes in gene expression during cardiac myocyte differentiation. Physiol. Genomics, 9(3):145-55, 2002).

[1] abbreviates: 10 mg/kg daily, one month after crush.

The structures appear in SMILES notation. Several values for one entry are separate records, joined by “and”; a condition that tells them apart may be missing. Equal entries are not always repeated. Entries after “also recorded” stand apart in the source; their conditions may differ.

In the case of `CCC(C)(C)C(=O)C(=O)N1CCC[C@H]1c1nnc([C@@H]2CCCN2C(=O)C(=O)C(C)(C)CC)o1` [GM-284], in the test on calcineurin, the “binding to / inhibition of calcineurin” value was “neither bind to, nor inhibit, calcineurin”. In the test with crushed sciatic nerve (setting [1]), the “increase in myelin (volume in voxels)” value is roughly 3 fold; the “increase in the size of myelinated axons” value is 3- to 4 fold and 4 fold. In addition, in the test on crushed sciatic nerve (10 mg/kg daily, one month after crush, electron microscopy), the “histology of regenerated sciatic nerve” value was “induced both axonal hypertrophy and a global over-elaboration of the myelin organelle; also recorded: enhanced axonal regeneration; also recorded: clear axonal hypertrophy, as well as hypermyelination; also recorded: hypermyelination and axonal hypertrophy”. For the same compound, the “ratio of axonal volume to myelin volume” value in the test with crushed sciatic nerve (GM-284-treated group, NIH Image) is recorded as 0.2. Besides, in the test on crushed sciatic nerve (vs vehicle, p<0.0001), the “increase in myelin volume, relative to each axon” value stood at 20 fold. In the test on Schwann cells (1 μM GM-284, 4 hours), the ESTs upregulated came out at 15; the Known genes upregulated was 11; the Selected upregulated genes result is “Cytokeratin 19 and Fibrillin 2 (fbn2) and IFNγ inducible and CD14 and Estradiol dehydrogenase”; the Total upregulated genes turned out to be 26. In the test on Schwann cells (1 μM GM-284, 48 hours), this compound registered an ESTs upregulated of 77, a Known genes upregulated of 32 and a Total upregulated genes of 109.
